Test results: patent US10858367B2, “Compounds” (GLAXOSMITHKLINE INTELLECTUAL PROPERTY DEVELOPMENT LIMITED, priority 2017, dated 2020)

Each molecule was assayed against T1, LRRK2 Ser935 phosphorylation in SH-SY5Y cells over-expressing recombinant full length LRRK2 (Homo sapiens, UniProt Q5S007) (assay: Recombinant cellular LRRK2 AlphaScreen assay). Conditions: human neuroblastoma SH-SY5Y cells, BacMam full length LRRK2, 60 minutes with compound, read-out: pIC50 in the recombinant cellular LRRK2 AlphaScreen assay (converted).
T1 construct: A BacMam virus expressing full length recombinant LRRK2 was purchased from Invitrogen; host or cells: SH-SY5Y human neuroblastoma cells transduced with BacMam LRRK2 virus
T1 sequence (Q5S007 whole entry): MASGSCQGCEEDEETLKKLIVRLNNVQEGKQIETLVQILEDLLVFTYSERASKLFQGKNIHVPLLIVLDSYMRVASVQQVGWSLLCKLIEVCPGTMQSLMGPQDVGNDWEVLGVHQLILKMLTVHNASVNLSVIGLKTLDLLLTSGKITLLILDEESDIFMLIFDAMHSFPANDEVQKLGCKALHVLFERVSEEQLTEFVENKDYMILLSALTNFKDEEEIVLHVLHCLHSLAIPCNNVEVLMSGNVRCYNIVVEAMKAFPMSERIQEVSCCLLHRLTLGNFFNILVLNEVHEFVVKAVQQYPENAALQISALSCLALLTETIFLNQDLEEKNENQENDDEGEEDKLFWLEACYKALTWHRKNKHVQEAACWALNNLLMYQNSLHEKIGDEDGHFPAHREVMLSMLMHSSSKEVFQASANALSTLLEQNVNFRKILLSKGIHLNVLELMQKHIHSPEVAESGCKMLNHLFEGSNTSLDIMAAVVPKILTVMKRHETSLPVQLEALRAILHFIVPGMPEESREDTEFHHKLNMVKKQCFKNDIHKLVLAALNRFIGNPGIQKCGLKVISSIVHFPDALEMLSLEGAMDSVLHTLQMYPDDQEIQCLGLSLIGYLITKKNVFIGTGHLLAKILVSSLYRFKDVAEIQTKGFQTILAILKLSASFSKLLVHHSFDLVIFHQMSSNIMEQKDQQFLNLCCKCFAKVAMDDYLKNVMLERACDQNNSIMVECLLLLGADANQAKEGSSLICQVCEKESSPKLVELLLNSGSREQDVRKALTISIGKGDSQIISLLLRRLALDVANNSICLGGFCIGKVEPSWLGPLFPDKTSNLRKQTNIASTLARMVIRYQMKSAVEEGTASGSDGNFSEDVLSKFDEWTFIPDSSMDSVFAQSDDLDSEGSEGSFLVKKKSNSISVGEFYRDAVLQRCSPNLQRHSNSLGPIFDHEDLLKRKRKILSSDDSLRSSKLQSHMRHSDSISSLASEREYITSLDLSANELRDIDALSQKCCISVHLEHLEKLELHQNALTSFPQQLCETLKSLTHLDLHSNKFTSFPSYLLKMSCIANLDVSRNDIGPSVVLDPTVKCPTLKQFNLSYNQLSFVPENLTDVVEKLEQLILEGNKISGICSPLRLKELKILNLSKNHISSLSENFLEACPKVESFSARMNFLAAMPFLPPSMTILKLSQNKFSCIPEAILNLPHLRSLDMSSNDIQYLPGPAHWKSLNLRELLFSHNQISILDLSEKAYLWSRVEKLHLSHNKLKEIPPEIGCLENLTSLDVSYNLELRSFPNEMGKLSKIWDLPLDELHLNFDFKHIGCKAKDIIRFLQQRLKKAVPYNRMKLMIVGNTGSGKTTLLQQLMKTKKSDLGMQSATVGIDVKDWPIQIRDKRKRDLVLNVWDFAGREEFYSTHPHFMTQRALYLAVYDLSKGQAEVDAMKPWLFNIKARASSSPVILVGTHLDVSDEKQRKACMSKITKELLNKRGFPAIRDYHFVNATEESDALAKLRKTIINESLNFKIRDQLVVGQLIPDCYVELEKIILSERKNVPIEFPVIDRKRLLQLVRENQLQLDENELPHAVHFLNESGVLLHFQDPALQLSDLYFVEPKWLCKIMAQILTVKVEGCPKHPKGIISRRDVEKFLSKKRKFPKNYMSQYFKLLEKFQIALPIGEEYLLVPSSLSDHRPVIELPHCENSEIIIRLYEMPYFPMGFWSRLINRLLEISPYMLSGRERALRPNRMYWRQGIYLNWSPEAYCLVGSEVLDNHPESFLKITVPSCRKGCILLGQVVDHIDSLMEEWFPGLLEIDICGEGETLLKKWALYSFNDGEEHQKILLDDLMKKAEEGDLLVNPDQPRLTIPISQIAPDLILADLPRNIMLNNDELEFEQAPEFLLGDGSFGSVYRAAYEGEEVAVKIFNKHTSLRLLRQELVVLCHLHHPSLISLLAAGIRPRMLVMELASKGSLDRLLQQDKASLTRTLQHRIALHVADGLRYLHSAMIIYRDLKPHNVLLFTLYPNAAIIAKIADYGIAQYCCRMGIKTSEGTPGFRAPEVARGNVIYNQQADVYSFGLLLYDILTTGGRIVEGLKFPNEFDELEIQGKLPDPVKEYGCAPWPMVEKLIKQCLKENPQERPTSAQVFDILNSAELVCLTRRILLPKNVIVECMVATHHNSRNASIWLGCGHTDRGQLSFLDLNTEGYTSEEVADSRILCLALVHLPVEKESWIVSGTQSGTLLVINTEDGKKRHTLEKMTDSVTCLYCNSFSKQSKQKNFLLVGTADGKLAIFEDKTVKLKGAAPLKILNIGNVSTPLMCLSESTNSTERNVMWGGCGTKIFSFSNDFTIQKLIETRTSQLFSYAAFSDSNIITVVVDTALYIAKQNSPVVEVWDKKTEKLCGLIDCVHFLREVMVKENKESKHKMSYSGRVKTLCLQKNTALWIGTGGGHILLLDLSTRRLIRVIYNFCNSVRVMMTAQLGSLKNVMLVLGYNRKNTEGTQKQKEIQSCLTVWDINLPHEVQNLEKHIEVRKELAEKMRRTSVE
Assay type: cell-based
Excerpt: b. Recombinant Cellular LRRK2 AlphaScreen Assay
To determine the activity of compounds against LRRK2 kinase activity in cells, the observed LRRK2 kinase-dependent modulation of LRRK2 Ser 935 phosphorylation (Dzamko et al., 2010, Biochem. J. 430: 405-413) was utilized to develop a quantitative 384 well plate-based immunoassay of LRRK2 Ser935 phosphorylation in the human neuroblastoma cell line SH-SY5Y, engineered to over-express recombinant full length LRRK2 protein.
A BacMam virus expressing full length recombinant LRRK2 was purchased from Invitrogen and amplified by inoculation of SF-9 cells at MOI 0.3 for 4-5 days in Sf-900 III SFM medium supplemented with 3% fetal bovine serum. Infected cell cultures were then centrifuged at 2000 g for 20 minutes, viral supernatant titer determined by anti-gp64 plaque assay and stored at 4° C.
Affinity-purified anti-phospho LRRK2 Ser935 sheep polyclonal antibody (Dzamko et al., 2010, Biochem. J. 430: 405-413) was biotinylated by standard methods (PerkinElmer). Anti-LRRK2 rabbit polyclonal antibody was purchased from Novus Biologicals. AlphaScreen Protein A IgG Kit (including acceptor and donor beads) was purchased from Perkin Elmer.
SH-SY5Y cells were grown in DMEM/F12 medium with 10% dialysed fetal bovine serum and harvested by treatment with 0.5% trypsin-EDTA for 5 minutes at 37° C. followed by centrifugation at 1000 rpm for 4 minutes. The cell pellet was resuspended in Opti-MEM reduced serum media (Invitrogen) at 200,000 cells/ml and mixed with the BacMam LRRK2 virus at MOI=50. 50 μl cell solutions were then dispensed to each well of a 384-well plate and incubated at 37° C., 5% CO2 for 24 hours.
Serial dilutions of test compounds were prepared in Opti-MEM reduced serum media (Invitrogen) and 5.6 ul transferred from compound plate to cell assay plate to achieve a top final assay concentration of 10 uM. DMSO was used in certain wells as controls. Cells were incubated at 37° C., 5% CO2 for 60 minutes. The medium was then removed and cells lysed by addition of 20 ul cell lysis buffer (Cell Signaling Technology) and incubation at 4° C. for 20 minutes. 10 ul of antibody/acceptor bead mix [(1/1000 biotinylated-pS935 LRRK2 antibody, 1/1000 total-LRRK2 antibody, 1/100 Acceptor beads in AlphaScreen detection buffer (25 mM Hepes (pH 7.4), 0.5% Triton X-100, 1 mg/ml Dextran 500 and 0.1% BSA)] was then added to each well and plates incubated for 2 hours at ambient temperature in the dark. 10 μl of donor beads solution (1/33.3 donor beads in AlphaScreen detection buffer) was then added to each well. Following incubation for a further 2 hours at ambient temperature in the dark, plates were read on an EnVision™ plate reader at emission 520-620 nm with excitation 680 nm. Dose response curve data was based on sigmoidal dose-response model.

SMILES	IC50 [nM]
COc1nc(N2C[C@H]3C[C@@H]2CO3)cc(-n2ncc3cc(C)c(C4CCN(CCO)CC4)cc32)n1 [Example E27, 2-(4-(1-(6-((1R,4R)-2-oxa-5-azabicyclo[2.2.1]heptan-5-yl)-2-methoxypyrimidin-4-yl)-5-methyl-1H-indazol-6-yl)piperidin-1-yl)ethanol]	≤ 1000
Cc1nc(N2CC3CC2CO3)cc(-n2ncc3cc(C)c(C4CCN([C@H]5CCOC5)CC4O)cc32)n1 (single isomer, unassigned) [Example E137]	≤ 1000
Cc1nc(N2C[C@@H]3C[C@H]2CO3)cc(-n2ncc3cc(Cl)c(N4CCC(C)(O)CC4)cc32)n1 [Example E33, 1-(1-(6-((1S,4S)-2-oxa-5-azabicyclo[2.2.1]heptan-5-yl)-2-methylpyrimidin-4-yl)-5-chloro-1H-indazol-6-yl)-4-methylpiperidin-4-ol]	≤ 1000
COc1nc(N2C[C@@H]3C[C@H]2CO3)cc(-n2ncc3cc(C)c(C4CCN(CCC(=O)O)CC4F)cc32)n1 (single isomer, unassigned) [Example E161]	≤ 1000
COc1nc(N2C[C@H]3C[C@@H]2CO3)cc(-n2ncc3cc(Cl)c(C4CCN(C5CCOC5)CC4)cc32)n1 (single isomer, unassigned) [Example E67]	≤ 1000
Cc1nc(N2CC3CCC(C2)O3)cc(-n2ncc3cc(C)c(C4CCNCC4)cc32)n1 [Example E63, 3-(2-methyl-6-(5-methyl-6-(piperidin-4-yl)-1H-indazol-1-yl)pyrimidin-4-yl)-8-oxa-3-azabicyclo[3.2.1]octane 2,2,2-trifluoroacetate]	≤ 1000
Cc1nc(N2C[C@H]3C[C@@H]2CN3C2COC2)cc(-n2ncc3cc(C)c([C@H]4CC[C@@](C)(O)CC4)cc32)n1 [Example E29, Cis-1-methyl-4-(5-methyl-1-(2-methyl-6-((1R,4R)-5-(oxetan-3-yl)-2,5-diazabicyclo[2.2.1]heptan-2-yl)pyrimidin-4-yl)-1H-indazol-6-yl)cyclohexanol]	≤ 1000
Cc1nc(N2CC3CC2CN3C2COC2)cc(-n2ncc3cc(C)c([C@H]4CC[C@@](C)(O)CC4)cc32)n1 (stereo partly drawn) [Example E30, Cis-1-methyl-4-(5-methyl-1-(2-methyl-6-((1S,4S)-5-(oxetan-3-yl)-2,5-diazabicyclo[2.2.1]heptan-2-yl)pyrimidin-4-yl)-1H-indazol-6-yl)cyclohexanol]	≤ 1000
Cc1nc(N2C[C@H]3C[C@@H]2CO3)cc(-n2ncc3cc(C)c(C4CCN(C5COC5)CC4C)cc32)n1 (stereo partly drawn) [Example E55, (1R,4R)-5-(2-methyl-6-(5-methyl-6-(3-methyl-1-(oxetan-3-yl)piperidin-4-yl)-1H-indazol-1-yl)pyrimidin-4-yl)-2-oxa-5-azabicyclo[2.2.1]heptane]	≤ 1000
Cc1nc(N2C[C@H]3C[C@@H]2CO3)cc(-n2ncc3cc(Cl)c(C4CCN(C5COC5)CC4)cc32)n1 [Example E25, (1R,4R)-5-(6-(5-chloro-6-(1-(oxetan-3-yl)piperidin-4-yl)-1H-indazol-1-yl)-2-methylpyrimidin-4-yl)-2-oxa-5-azabicyclo[2.2.1]heptane]	≤ 1000
Cc1nc(N2C3COCC2COC3)cc(-n2ncc3cc(C)c(C4CCN(C5COC5)CC4)cc32)n1 [Example E46, 9-(2-methyl-6-(5-methyl-6-(1-(oxetan-3-yl)piperidin-4-yl)-1H-indazol-1-yl)pyrimidin-4-yl)-3,7-dioxa-9-azabicyclo[3.3.1]nonane]	≤ 1000
Cc1nc(N2CC3CC(C2)O3)cc(-n2ncc3cc(C)c(C4CCN(C5COC5)CC4)cc32)n1 [Example E44, 3-(2-Methyl-6-(5-methyl-6-(1-(oxetan-3-yl)piperidin-4-yl)-1H-indazol-1-yl)pyrimidin-4-yl)-6-oxa-3-azabicyclo[3.1.1]heptane]	≤ 1000
COc1nc(N2CC3CCC2CO3)cc(-n2ncc3cc(C)c(C4CCN(C5CCOC5)CC4)cc32)n1 (single isomer, unassigned) [Example E64, 5-(2-methoxy-6-(5-methyl-6-(1-(tetrahydrofuran-3-yl)piperidin-4-yl)-1H-indazol-1-yl)pyrimidin-4-yl)-2-oxa-5-azabicyclo[2.2.2]octane]	≤ 1000
COc1nc(N2CC3CC2CO3)cc(-n2ncc3cc(C)c(C4CCN(C5COC5)CC4O)cc32)n1 (single isomer, unassigned) [Example E132]	≤ 1000
COc1nc(N2C[C@@H]3C[C@H]2CO3)cc(-n2ncc3cc(C)c(C4CCN(CCC(=O)O)CC4)cc32)n1 [Example E165, 3-(4-(1-(6-((1S,4S)-2-oxa-5-azabicyclo[2.2.1]heptan-5-yl)-2-methoxypyrimidin-4-yl)-5-methyl-1H-indazol-6-yl)piperidin-1-yl)propanoic Acid]	≤ 1000
Cc1nc(N2C[C@H]3C[C@@H]2CO3)cc(-n2ncc3cc(C)c(C4CCN(C5COCC5O)CC4)cc32)n1 (single isomer, unassigned) [Example E172]	≤ 1000
Cc1nc(N2C[C@H]3C[C@@H]2CO3)cc(-n2ncc3cc(C)c(C4CCN(CCO)CC4)cc32)n1 [Example E51, 2-(4-(1-(6-((1R,4R)-2-oxa-5-azabicyclo[2.2.1]heptan-5-yl)-2-methylpyrimidin-4-yl)-5-methyl-1H-indazol-6-yl)piperidin-1-yl)ethanol]	≤ 1000
Cc1nc(N2C[C@H]3C[C@@H]2CO3)cc(-n2ncc3cc(C)c(C4CCN(CCC(=O)O)CC4F)cc32)n1 (single isomer, unassigned) [Example E155]	≤ 1000
COc1nc(N2C[C@H]3C[C@@H]2CO3)cc(-n2ncc3cc(C)c(C4CCNCC4)cc32)n1 [Example E58, (1R,4R)-5-(2-methoxy-6-(5-methyl-6-(piperidin-4-yl)-1H-indazol-1-yl)pyrimidin-4-yl)-2-oxa-5-azabicyclo[2.2.1]heptane]	≤ 1000
Cc1nc(N2CC3CC(C2)O3)cc(-n2ncc3cc(C)c(C4CCNCC4)cc32)n1 [Example E61, 3-(2-methyl-6-(5-methyl-6-(piperidin-4-yl)-1H-indazol-1-yl)pyrimidin-4-yl)-6-oxa-3-azabicyclo[3.1.1]heptane 2,2,2-trifluoroacetate]	≤ 1000
Cc1nc(N2CC3(CO)CC2CO3)cc(-n2ncc3cc(C)c(C4CCN(C5CCOC5)CC4)cc32)n1 (single isomer, unassigned) [Example E153, (5-(2-methyl-6-(5-methyl-6-(1-(tetrahydrofuran-3-yl)piperidin-4-yl)-1H-indazol-1-yl)pyrimidin-4-yl)-2-oxa-5-azabicyclo[2.2.1]heptan-1-yl)methanol]	≤ 1000
COc1nc(N2C[C@H]3C[C@@H]2CO3)cc(-n2ncc3ccc(OC4(C)CC4)cc32)n1 [Example E3, (1R,4R)-5-(2-methoxy-6-(6-(1-methylcyclopropoxy)-1H-indazol-1-yl)pyrimidin-4-yl)-2-oxa-5-azabicyclo[2.2.1]heptane]	≤ 1000
COc1nc(N2C[C@H]3C[C@@H]2CO3)cc(-n2ncc3cc(C)c(C4CCN(CCO)CC4F)cc32)n1 (single isomer, unassigned) [Example E17]	≤ 10
Cc1nc(N2CC3CC(C2)C3C(=O)O)cc(-n2ncc3cc(C)c([C@H]4CC[C@@](C)(O)CC4)cc32)n1 (single isomer, unassigned) [Example E77, Cis-3-{6-[6-(4-Hydroxy-4-methyl-cyclohexyl)-5-methyl-indazol-1-yl]-2-methyl-pyrimidin-4-yl}-3-aza-bicyclo[3.1.1]heptane-6-carboxylic Acid]	≤ 1000
